Each block holds one compound with its values, some of them ahead of it.
Key:
Zebrafish embryos = experiment: Zebrafish embryo staining: localization and tissue permeability; assay type: in vivo; conditions: confocal projections of head and tail, 80 μm of embryonic interior
From the text: Zebrafish embryos were stained with compound 3 and compound 4 in order to assess the localization and tissue permeability of each compound in vivo. This procedure had not previously been attempted in zebrafish embryos with an unconjugated fluorescein derivative. Therefore, the commercially available BODIPY TR methyl ester was used as a control stain since it has been successfully used for this purpose.[10] […] Yolk sacs and yolk extensions always appeared brighter than the embryos themselves (FIG. 3A-C). This is likely the result of compound accumulation within the lipidic yolk platelets that comprise almost the entire volume of the yolk.[11]
Structures containing little organic material, including scales and calcified otoliths, were not stained. Confocal sections of the dorsal midline (FIG. 3H, J, L) indicate that the notochord sheath and surrounding tissue are efficiently labeled, while the notochord vacuoles remain unstained.

live human cells = conditions: compared with Tokyo Green; cited from earlier work
[1] = carboxyl group replaced with methyl group; cited from earlier work

permeation of live tissue (Zebrafish embryos): permeate live tissue to similar extents
SMILES: COC(=O)COc1ccc(C2=[N+]3C(=Cc4ccc(-c5cccs5)n4[B-]3(F)F)C=C2)cc1 [BODIPY TR methyl ester]

SMILES: Cc1ccccc1-c1c2cc(F)c(=O)cc-2oc2cc(O)c(F)cc12 [Pennsylvania Green]
fluorescence in live human cells (live human cells): more fluorescent than Tokyo Green

SMILES: Cc1ccccc1-c1c2ccc(=O)cc-2oc2cc(O)ccc12 [Tokyo Green]
quantum yield relative to fluorescein [1]: no loss of quantum yield

Source: patent US8084627B2, “Hydroxymethyl fluorescein derivatives for use as biological markers and dyes” (University of Pittsburgh-of the Commonwealth System of …, priority 2007, dated 2011)
